Data taken from patent US20090325952A1, “PYRAZOLO[3,4-B]PYRIDINE COMPOUNDS, AND THEIR USE AS PDE4 INHIBITORS” (Glaxo Group Limited, priority 2006, published 2009).

Molecular target: PDE5 (human recombinant) (Homo sapiens, UniProt O76074)
Assay: Inhibition of PDE5 activity (FP or SPA assays)
Format: biochemical
Conditions: selectivity PDE4B over PDE5
From the text: Human recombinant PDE5 is disclosed in K. Loughney et al., “Isolation and characterisation of cDNAs encoding PDE5A, a human cGMP-binding, cGMP-specific 3′,5′-cyclic nucleotide phosphodiesterase”, Gene, 1998, 216, 139-147.
The ability of compounds to inhibit catalytic activity at PDE4B or 4D (human recombinant), PDE3 (from bovine aorta), PDE5 (human recombinant) or PDE6 (from bovine retina) can optionally be determined by Scintillation Proximity Assay (SPA) in a 96-well format.
Test compounds (as a solution in DMSO, suitably about 2 microlitre (ul) volume of DMSO solution) are preincubated at ambient temperature (room temperature, e.g. 19-23° C.) in Wallac Isoplates (code 1450-514) with PDE enzyme in 50 mM Tris-HCl buffer pH 7.5, 8.3 mM MgCl2, 1.7 mM EGTA, 0.05% (w/v) bovine serum albumin for 10-30 minutes (usually 30 minutes). The enzyme concentration is adjusted so that no more than 20% hydrolysis of the substrate defined below occurs in control wells without compound, during the incubation. […] Bound radioactive product is measured using a WALLAC TRILUX 1450 Microbeta scintillation counter. […] Curves are analysed using ActivityBase and XLfit (ID Business Solutions Limited, 2 Ocean Court, Surrey Research Park, Guildford, Surrey GU2 7QB, United Kingdom) Results are expressed as pIC50 values. […]

`CCc1nc2c(cnn2CC)c(NC2CCOCC2)c1CNC(=O)c1ccc(NC(=O)CCCCCCCN(C)CCO)cc1` [Example 1B, N-{[1,6-diethyl-4-(tetrahydro-2H-pyran-4-ylamino)-1H-pyrazolo[3,4-b]pyridin-5-yl]methyl}-4-({8-[(2-hydroxyethyl)(methyl)amino]octanoyl}amino)benzamide] was tested, and the “PDE4B inhibition compared with PDE5 inhibition (pIC50 values)” value was “inhibit PDE4B more strongly than they inhibit PDE3, PDE5 and PDE6”.
